{"source": "patent US20060025474A1", "about": "“Bisphenyl compounds useful as vitamin D3 receptor agonists” (priority 2004, published 2006)", "data": [{"tested_on": "ECAC2 mRNA in Caco-2 cells", "format": "cell-based", "method": "The mRNA Expression Assay of ECAC2 in Caco-2 Cells\nThe dispersed cells were plated in 48-well plate at a concentration of 6.3×10^4 cells/well and incubated for 4 days at 37° C. The culture medium (Dulbecco's Modified Eagle Medium (D-MEM) without NaHCO3 with 44 mM NaHCO3, 1 mM non-essential amino acids, and 2 mM L-glutamine, 90%; fetal bovine serum, 10%) was then replaced with the same medium containing various concentrations of LG190178 (the compound disclosed in WO00/10958 and the corresponding U.S. Pat. No. 6,218,430 B1) or the compounds of the present invention, and cells were cultured for 1 day at 37° C. The culture medium containing the compounds was changed twice per day.\nTotal RNA Isolation from Caco-2 Cell\nTotal RNA was isolated from Caco-2 cell following ABI PRISM™ 6100 Nucleic Acid PrepStation protocol from Applied Biosystems.\nReal Time RT-PCR Assay of ECAC2\nECAC2 mRNA expression was determined using TaqMan One-step RT-PCR Master Mix Reagents Kit and PRISM7000 systems from Applied Biosystems.\nPrimer information and cycle conditions are 1)ECAC2, forward 5′-[…]-3′, reverse 5′-GTCCTCTGTCTGGMGATGA-3′, Taqman probe 5′-[…]-3′, 55 cycles, annealing temperature (Ta)=60° C.; 2)GAPDH, forward 5′-GMGGTGMGGTCGGAGTC-3′, reverse 5′-GMGATGGTGATGGGATTTC-3′, Taqman probe 5′-[…]-3′, 55 cycles, Ta=60° C. ECAC2 mRNA values were normalized for the expression of GAPDH mRNA within each sample.\nComparison of ECAC2 mRNA Value\nThe EC50 values of ECAC2 mRNA values were analyzed by Emax models. The ECAC2 mRNA ratio was calculated as the ratio of the EC50 value of the compounds to that of LG190178. ECAC2 is a channel-like transporter mediating intestinal calcium absorption. It is described in J Biol Chem. Aug. 6, 1999; 274(32):22739-46 for example.", "units": {"ECaC-2 mRNA induction activity in Caco-2 cells": "%"}, "values": [{"smiles": "CCC(CC)(c1ccc(/C=C/C(O)(C(F)(F)F)C(F)(F)F)c(C)c1)c1ccc(OC[C@@H]2CCCC(=O)O2)c(C)c1", "note": "[Example 55, (S)-6-(4-{1-ethyl-1-[3-methyl-4-((E)-4,4,4-trifluoro-3-hydroxy-3-trifluoromethyl-but-1-enyl)-phenyl]-propyl}-2-methyl-phenoxymethyl)-tetrahydro-pyran-2-one]", "ECaC-2 mRNA induction activity in Caco-2 cells": 662}, {"smiles": "CCC(O)(/C=C/c1ccc(C(CC)(CC)c2ccc(OC[C@H]3CCC(=O)O3)c(C)c2)cc1C)CC", "note": "[Example 44, (R)-5-(4-{1-ethyl-1-[4-((E)-3-ethyl-3-hydroxy-pent-1-enyl)-3-methyl-phenyl]-propyl}-2-methyl-phenoxymethyl)-dihydro-furan-2-one]", "ECaC-2 mRNA induction activity in Caco-2 cells": 96}, {"smiles": "CCC(CC)(c1ccc(/C=C/C(O)C(C)(C)C)c(C)c1)c1ccc(OC[C@@H](O)CCC(=O)O)c(C)c1", "note": "(stereo partly drawn) [Example 28, 5-(4-{1-ethyl-1-[4-((E)-3-hydroxy-4,4-dimethyl-pent-1-enyl)-3-methyl-phenyl]-propyl}-2-methyl-phenoxy)-4(S)-hydroxy-pentanoic acid]", "ECaC-2 mRNA induction activity in Caco-2 cells": 2093}, {"smiles": "CCC(CC)(c1ccc(C#CCCCC(=O)O)c(C)c1)c1ccc(C#CC(O)(C(F)(F)F)C(F)(F)F)c(C)c1", "note": "[Example 192, 6-(4-{1-Ethyl-1-[3-methyl-4-(4,4,4-trifluoro-3-hydroxy-3-trifluoromethyl-but-1-ynyl)-phenyl]-propyl}-2-methyl-phenyl)-hex-5-ynoic acid]", "ECaC-2 mRNA induction activity in Caco-2 cells": 292}, {"smiles": "CCC(CC)(c1ccc(/C=C/C2(O)CCCC2)c(C)c1)c1ccc(OCCCCCN)c(C)c1", "note": "[Example 121, 1-[(E)-2-(4-{1-[4-(5-Amino-pentyloxy)-3-methyl-phenyl]-1-ethyl-propyl}-2-methyl-phenyl)-vinyl]-cyclopentanol]", "ECaC-2 mRNA induction activity in Caco-2 cells": 75}, {"smiles": "CCC(CC)(c1ccc(C#CC(O)(C(F)(F)F)C(F)(F)F)c(C)c1)c1ccc(OC[C@@H](O)CCCO)c(C)c1", "note": "[Example 153, (S)-5-(4-{1-Ethyl-1-[3-methyl-4-(4,4,4-trifluoro-3-hydroxy-3-trifluoromethyl-but-1-ynyl)-phenyl]-propyl}-2-methyl-phenoxy)-pentane-1,4-diol]", "ECaC-2 mRNA induction activity in Caco-2 cells": 1662}, {"smiles": "CCC(CC)(c1ccc(/C=C/C2(O)CCCC2)c(C)c1)c1ccc(OCCCCC(=O)O)c(C)c1", "note": "[Example 86, 5-[4-(1-ethyl-1-{4-[(E)-2-(1-hydroxy-cyclopentyl)-vinyl]-3-methyl-phenyl}-propyl)-2-methyl-phenoxy]-pentanoic acid]", "ECaC-2 mRNA induction activity in Caco-2 cells": 289}, {"smiles": "CCC(CC)(c1ccc(CCC(O)C(C)(C)C)c(C)c1)c1ccc(OC[C@@H](O)CCCC(=O)O)c(C)c1", "note": "(stereo partly drawn) [Example 187, 6-(4-{1-Ethyl-1-[4-(3-hydroxy-4,4-dimethyl-pentyl)-3-methyl-phenyl]-propyl}-2-methyl-phenoxy)-5(S)-hydroxy-hexanoic acid]", "ECaC-2 mRNA induction activity in Caco-2 cells": 545}, {"smiles": "CCCc1cc(C(CC)(CC)c2ccc(OC[C@@H](O)CCC(=O)O)c(C)c2)ccc1/C=C/C(O)(CC)CC", "note": "[Example 170, (S)-5-(4-{1-Ethyl-1-[4-((E)-3-ethyl-3-hydroxy-pent-1-enyl)-3-propyl-phenyl]-propyl}-2-methyl-phenoxy)4-hydroxy-pentanoic acid]", "ECaC-2 mRNA induction activity in Caco-2 cells": 191}, {"smiles": "CCC(CC)(c1ccc(CCC(O)(C(F)(F)F)C(F)(F)F)c(C)c1)c1ccc(OC[C@@H](O)CCC(=O)O)c(C)c1", "note": "[Example 31, (S)-5-(4-{1-ethyl-1-[3-methyl-4-(4,4,4-trifluoro-3-hydroxy-3-trifluoromethyl-butyl)-phenyl]-propyl}-2-methyl-phenoxy)-4-hydroxy-pentanoic acid]", "ECaC-2 mRNA induction activity in Caco-2 cells": 161}, {"smiles": "CCC(CC)(c1ccc(/C=C/C(O)(C(F)(F)F)C(F)(F)F)c(C)c1)c1ccc(OC[C@H]2CCCO2)c(C)c1", "note": "[Example 155, (E)4-[4-(1-Ethyl-1-{3-methyl4-[(R)-1-(tetrahydro-furan-2-yl)methoxy]-phenyl}-propyl)-2-methyl-phenyl]-11,11-trifluoro-2-trifluoromethyl-but-3-en-2-ol]", "ECaC-2 mRNA induction activity in Caco-2 cells": 86}, {"smiles": "CCC(CC)(c1ccc(C#CC(O)(C(F)(F)F)C(F)(F)F)c(C)c1)c1ccc(OC[C@H]2CCCC(=O)O2)c(C)c1", "note": "[Example 59, (R)-6-(4-{1-Ethyl-1-[3-methyl4-(4,4,4-trifluoro-3-hydroxy-3-trifluoromethyl-but-1-ynyl)-phenyl]-propyl}-2-methyl-phenoxymethyl)-tetrahydro-pyran-2-one]", "ECaC-2 mRNA induction activity in Caco-2 cells": 117}, {"smiles": "CCC(CC)(c1ccc(CCC(O)C(C)(C)C)c(C)c1)c1ccc(OCCCCCN)c(C)c1", "note": "(stereo not drawn) [Example 102, 1-(4-{1-[4-(5-amino-pentyloxy)-3-methyl-phenyl]-1-ethyl-propyl}-2-methyl-phenyl)-4,4-dimethyl-pentan-3-ol]", "ECaC-2 mRNA induction activity in Caco-2 cells": 166}, {"smiles": "CCC(CC)(c1ccc(C#CC(O)C(C)(C)C)c(C)c1)c1ccc(OC[C@@H](O)CCC(=O)O)c(C)c1", "note": "(stereo partly drawn) [Example 27, 5-(4-{1-ethyl-1-[4-(3-hydroxy-4,4-dimethyl-pent-1-ynyl)-3-methyl-phenyl]-propyl}-2-methyl-phenoxy)-4(S)-hydroxy-pentanoic acid]", "ECaC-2 mRNA induction activity in Caco-2 cells": 114}, {"smiles": "CCC(CC)(c1ccc(/C=C/C(O)(C(F)(F)F)C(F)(F)F)c(C)c1)c1ccc(OC[C@@H](O)CC(=O)O)c(C)c1", "note": "[Example 52, (S)4-(4-{1-ethyl-1-[3-methyl-4-((E)A4,4,4-trifluoro-3-hydroxy-3-trifluoromethyl-but-1-enyl)-phenyl]-propyl}-2-methyl-phenoxy)-3-hydroxy-butyric acid]", "ECaC-2 mRNA induction activity in Caco-2 cells": 1227}, {"smiles": "CCc1cc(C(CC)(CC)c2ccc(C(=O)N[C@H](C)C(=O)O)s2)ccc1OCC(C)(O)C(C)(C)C", "note": "(single isomer, unassigned) [Compound B, reference compound]", "ECaC-2 mRNA induction activity in Caco-2 cells": 15}, {"smiles": "CCC(O)(/C=C/c1ccc(C(CC)(CC)c2ccc(OCCCCCN)c(C)c2)cc1C)CC", "note": "[Example 119, (E)-1-(4-{1-[4-(5-Amino-pentyloxy)-3-methyl-phenyl]-1-ethyl-propyl}-2-methyl-phenyl)-3-ethyl-pent-1-en-3-ol]", "ECaC-2 mRNA induction activity in Caco-2 cells": 12}, {"smiles": "CCC(CC)(c1ccc(C#CC(O)(C(F)(F)F)C(F)(F)F)c(C)c1)c1ccc(CCC(=O)O)c(C)c1", "note": "[Example 106, 3-(4-{1-ethyl-1-[3-methyl-4-(4,4,4-trifluoro-3-hydroxy-3-trifluoromethyl-but-1-ynyl)-phenyl]-propyl}-2-methyl-phenyl)-propionic acid]", "ECaC-2 mRNA induction activity in Caco-2 cells": 399}, {"smiles": "CCC(CC)(c1ccc(/C=C/C2(O)CCCC2)c(C)c1)c1ccc(OC[C@@H](O)CCC(=O)O)c(C)c1", "note": "[Example 35, (S)-5-[4-(1-ethyl-1-{4-[(E)-2-(1-hydroxy-cyclopentyl)-vinyl]-3-methyl-phenyl}-propyl)-2-methyl-phenoxy]-4-hydroxy-pentanoic acid]", "ECaC-2 mRNA induction activity in Caco-2 cells": 538}, {"smiles": "CCC(CC)(c1ccc(/C=C/C(O)(C(F)(F)F)C(F)(F)F)c(C)c1)c1ccc(OC[C@@H](O)CO)c(C)c1", "note": "[Example 69, (S)-3-(4-{1-ethyl-1-[3-methyl-4-((E)-4,4,4-trifluoro-3-hydroxy-3-trifluoromethyl-but-1-enyl)-phenyl]-propyl}-2-methyl-phenoxy)-propane-1,2-diol]", "ECaC-2 mRNA induction activity in Caco-2 cells": ">10000"}, {"smiles": "CCC(CC)(c1ccc(C#CC(O)(C(F)(F)F)C(F)(F)F)c(C)c1)c1ccc(OC[C@@H]2CCCC(=O)O2)c(C)c1", "note": "[Example 57, (S)-6-(4-{1-ethyl-1-[3-methyl4-(4,4,4-trifluoro-3-hydroxy-3-trifluoromethyl-but-1-ynyl)-phenyl]-propyl}-2-methyl-phenoxymethyl)-tetrahydro-pyran-2-one]", "ECaC-2 mRNA induction activity in Caco-2 cells": 24}, {"smiles": "CCC(CC)(c1ccc(C#CC(O)(C(F)(F)F)C(F)(F)F)c(C)c1)c1ccc(OC[C@@H](O)CO)c(C)c1", "note": "[Example 68, 3-(4-{1-Ethyl-1-[3-methyl4-(4,4,4-trifluoro-3-hydroxy-3-trifluoromethyl-but-1-ynyl)-phenyl]-propyl}-2-methyl-phenoxy)-propane-1,2(S)-diol]", "ECaC-2 mRNA induction activity in Caco-2 cells": 355}, {"smiles": "CCc1cc(C(CC)(CC)c2ccc(C(=O)N[C@H](C)C(=O)O)s2)ccc1OCC(C)(O)C(C)(C)C", "note": "(single isomer, unassigned) [Compound A, reference compound]", "ECaC-2 mRNA induction activity in Caco-2 cells": 123}, {"smiles": "CCC(CC)(c1ccc(/C=C/C(O)(C(F)(F)F)C(F)(F)F)c(C)c1)c1ccc(OC[C@@H](O)CCCC(=O)O)c(C)c1", "note": "[Example 56, (S)-6-(4-{1-Ethyl-1-[3-methyl-4-((E)4,4,4-trifluoro-3-hydroxy-3-trifluoromethyl-but-1-enyl)-phenyl]-propyl}-2-methyl-phenoxy)-5-hydroxy-hexanoic acid]", "ECaC-2 mRNA induction activity in Caco-2 cells": 276}]}]}
